Consider 10 molecules from PubChem BioAssay (NCI).

SMILES strings stand for the structures.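 Cells were grown in 96-well plates and exposed to each compound for 48 hours at five concentrations; endpoints were interpolated linearly between bracketing concentrations, or set to the highest concentration if not reached. Here, GI50 denotes the concentration required for 50% inhibition of growth. TGI: total growth inhibition.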

Some test systems named below: CCRF-CEM leukemia; HCC-2998 colon; HOP-92 NSCLC; HT29 colon; NCI-H23 lung; NCI/ADR-RES ovarian; SK-MEL-28 melanoma; SN12C renal; SNB-19 CNS; UO-31 renal.
Holding throughout (test): NCI-60 cell line screen, 48 h

`COc1ccc(Cc2nnc(Nc3ccc(Br)cc3)[nH]c2=O)cc1OC`: the TGI in the experiment with CCRF-CEM leukemia, in the experiment on HCC-2998 colon, in the experiment on HOP-92 NSCLC, in the experiment on HT29 colon, with NCI-H23 lung and in the experiment with NCI/ADR-RES ovarian was > 100 µM each time. The TGI with SK-MEL-28 melanoma, with SN12C renal, in the experiment on SNB-19 CNS and with UO-31 renal was > 100 µM each time.

Regarding `COc1ccccc1C1ON=C(c2ccc([N+](=O)[O-])cc2)N1C12CC3CC(CC(C3)C1)C2` (stereo not given), the TGI with CCRF-CEM leukemia, in the experiment with HCC-2998 colon, with HOP-92 NSCLC, with HT29 colon, in the experiment on NCI-H23 lung and with NCI/ADR-RES ovarian was > 100 µM throughout. For the same molecule, the TGI in the experiment on SK-MEL-28 melanoma, with SN12C renal, with SNB-19 CNS and in the experiment on UO-31 renal was > 100 µM in each case.

For the molecule `CC(=O)O[C@H]1CC[C@@]2(C)C(=CC[C@@H]3[C@@H]2CC[C@]2(C)c4c(C)nn(-c5ccccc5)c4C[C@@H]32)C1`, the TGI in the experiment on CCRF-CEM leukemia was 56.9 µM; with HCC-2998 colon, 30.6 µM; in the experiment with HOP-92 NSCLC it was 70.8 µM; in the experiment on HT29 colon, > 100 µM; in the experiment with NCI-H23 lung, 31.3 µM; in the experiment with NCI/ADR-RES ovarian it was > 100 µM. The TGI in the experiment with SK-MEL-28 melanoma was > 100 µM; in the experiment with SN12C renal, > 100 µM; in the experiment with SNB-19 CNS it was > 100 µM; in the experiment with UO-31 renal, 47.3 µM.

As for `O=C(Nc1ccc(-n2ccc3c(NC(=O)c4ccccc4)ncnc32)cc1)Nc1ccc(Cl)c(Cl)c1`, the GI50 with CCRF-CEM leukemia is 0.987 µM; in the experiment with HCC-2998 colon, 5.34 µM; in the experiment with HOP-92 NSCLC it was 1.12 µM; in the experiment with HT29 colon it was 0.965 µM; in the experiment on NCI-H23 lung, 6.33 µM; in the experiment on NCI/ADR-RES ovarian, 10.3 µM. The GI50 is 2.92 µM in the experiment with SK-MEL-28 melanoma, 4.76 µM in the experiment with SN12C renal, 4.58 µM in the experiment with SNB-19 CNS and 7.16 µM with UO-31 renal. Besides, the TGI turned out to be 2.83 µM in the experiment with CCRF-CEM leukemia; 20.7 µM with HCC-2998 colon; 6.94 µM with HOP-92 NSCLC; 2.9 µM with HT29 colon; 22.3 µM in the experiment with NCI-H23 lung; 50 µM in the experiment on NCI/ADR-RES ovarian. Besides, the TGI turned out to be 9.43 µM in the experiment on SK-MEL-28 melanoma, 12.3 µM with SN12C renal, 12.6 µM in the experiment on SNB-19 CNS and 14.8 µM in the experiment with UO-31 renal.

As to `O=c1[nH]nc(Cc2c[nH]c3ccccc23)o1`, the TGI with CCRF-CEM leukemia, with HCC-2998 colon, with HOP-92 NSCLC, in the experiment with HT29 colon, in the experiment with NCI-H23 lung and in the experiment on NCI/ADR-RES ovarian was > 100 µM each time. Besides, the TGI in the experiment on SK-MEL-28 melanoma, in the experiment on SN12C renal, with SNB-19 CNS and in the experiment on UO-31 renal was > 100 µM throughout.

In the case of `CCOC(=O)C1(C(=O)OCC)OC(C)=NC1(C(=O)OC)C(=O)OC`, the TGI with CCRF-CEM leukemia was > 100 µM; in the experiment on HCC-2998 colon, > 100 µM; with HOP-92 NSCLC, > 26.4 µM; in the experiment with HT29 colon it was > 100 µM; in the experiment on NCI-H23 lung, > 100 µM; with NCI/ADR-RES ovarian, > 100 µM. Besides, the TGI in the experiment with SK-MEL-28 melanoma, with SN12C renal, with SNB-19 CNS and in the experiment with UO-31 renal was > 100 µM in each case.

Turning to `NC(=O)NCCCC(NC(=O)OCCCCCCn1ccc(=O)[nH]c1=O)C(=O)O` (stereo not given), the TGI with CCRF-CEM leukemia, in the experiment with HCC-2998 colon, in the experiment on HOP-92 NSCLC, with HT29 colon, in the experiment with NCI-H23 lung and in the experiment on NCI/ADR-RES ovarian was > 100 µM each time. Also, the TGI with SK-MEL-28 melanoma, with SN12C renal, in the experiment with SNB-19 CNS and in the experiment with UO-31 renal was > 100 µM throughout.

With `CC(=O)NC1(c2cc3ccccc3s2)CCCCCC1`, the TGI with CCRF-CEM leukemia was 52.6 µM; in the experiment on HCC-2998 colon, > 100 µM; with HOP-92 NSCLC, > 100 µM; in the experiment with HT29 colon it was > 100 µM; with NCI-H23 lung, > 100 µM; in the experiment on NCI/ADR-RES ovarian it was > 100 µM. The TGI with SK-MEL-28 melanoma, in the experiment with SN12C renal, with SNB-19 CNS and in the experiment on UO-31 renal was > 100 µM each time.

As to `CCOC(=O)c1cc2/c(=C\c3ccc(N(C)C)cc3)c3ccccc3n2[n+]1C`, the TGI was > 24.6 µM in the experiment with CCRF-CEM leukemia; 10 µM in the experiment with HCC-2998 colon; 14.9 µM in the experiment on HOP-92 NSCLC; 12.7 µM in the experiment with HT29 colon; 12.3 µM in the experiment on NCI-H23 lung; > 100 µM in the experiment with NCI/ADR-RES ovarian. The TGI in the experiment with SK-MEL-28 melanoma is 14 µM; in the experiment with SN12C renal it was 14.4 µM; with SNB-19 CNS it was 15.6 µM; with UO-31 renal, 19.3 µM.

As to `N#Cc1c(-c2ccc(Cl)cc2)[nH]c(=O)n(C2OC(CO)C(O)C(O)C2O)c1=O` (stereo not given), the TGI in the experiment with CCRF-CEM leukemia, with HCC-2998 colon, in the experiment with HOP-92 NSCLC, with HT29 colon, with NCI-H23 lung and in the experiment on NCI/ADR-RES ovarian was > 100 µM in each case. In addition, the TGI in the experiment with SK-MEL-28 melanoma, in the experiment with SN12C renal, with SNB-19 CNS and in the experiment with UO-31 renal was > 100 µM throughout.
